Laboratory results published in the supplement of paper PMC4862054.
Values joined by “and” are separate entries in the source; they are usually repeats but may differ in a detail not shown here. Identical values can stand only once.

Key:
Test in all cases: normalised viability (% of control), CellTiter-Blue; higher = more viable cells (about 100 = DMSO control)
Conditions in all cases: incubation time: 72 h
DU-4475 [1] = system: DU-4475
Method: (§1)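 DSRT, CellTiter-Blue viability, 72 h incubation. Signal is normalised to DMSO and benzethonium chloride controls. Value is the normalised response at dose 6.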

CAL-51 [2] = system: CAL-51
Method: as §1

MDA-MB-453 [3] = system: MDA-MB-453
Method: as §1

CAL-85-1 [4] = system: CAL-85-1
Method: as §1

CAL-148 [5] = system: CAL-148
Method: as §1

HDQ-P1 [6] = system: HDQ-P1
Method: as §1

DU-4475 [7] = system: DU-4475; remark: listed apart in the source
Method: (§2)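 DSRT, CellTiter-Blue viability, 72 h incubation. Signal is normalised to DMSO and benzethonium chloride controls. Value is the normalised response at dose 8.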

CAL-51 [8] = system: CAL-51; remark: listed apart in the source
Method: as §2

MDA-MB-453 [9] = system: MDA-MB-453; remark: listed apart in the source
Method: as §2

CAL-85-1 [10] = system: CAL-85-1; remark: listed apart in the source
Method: as §2

CAL-148 [11] = system: CAL-148; remark: listed apart in the source
Method: as §2

HDQ-P1 [12] = system: HDQ-P1; remark: listed apart in the source
Method: as §2

DU-4475 [13] = system: DU-4475; remark: listed apart in the source
Method: (§3)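 DSRT, CellTiter-Blue viability, 72 h incubation. Signal is normalised to DMSO and benzethonium chloride controls. Value is the normalised response at dose 7.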

CAL-51 [14] = system: CAL-51; remark: listed apart in the source
Method: as §3

MDA-MB-453 [15] = system: MDA-MB-453; remark: listed apart in the source
Method: as §3

CAL-85-1 [16] = system: CAL-85-1; remark: listed apart in the source
Method: as §3

CAL-148 [17] = system: CAL-148; remark: listed apart in the source
Method: as §3

HDQ-P1 [18] = system: HDQ-P1; remark: listed apart in the source
Method: as §3

Compound | normalised viability (DU-4475 [1]) | normalised viability (CAL-51 [2]) | normalised viability (MDA-MB-453 [3]) | normalised viability (CAL-85-1 [4]) | normalised viability (CAL-148 [5]) | normalised viability (HDQ-P1 [6]) | also measured
Cc1c(N)nc([C@H](CC(N)=O)NC[C@H](N)C(N)=O)nc1C(=O)N[C@H](C(=O)N[C@H](C)[C@@H](O)[C@H](C)C(=O)N[C@H](C(=O)NCCc1nc(-c2nc(C(=O)NCCC[S+](C)C)cs2)cs1)[C@@H](C)O)[C@@H](OC1OC(CO)C(O)C(O)C1OC1OC(CO)C(O)C(OC(N)=O)C1O)c1cnc[nH]1 (stereo partly drawn) [Bleomycin] (300 nM) | 107% | 90.9% | 102% | 92.5% | 81.5% | 72.9% | –
CC[C@@H]1C(=O)N(C)c2cnc(Nc3ccc(C(=O)N[C@H]4CC[C@H](N5CCN(CC6CC6)CC5)CC4)cc3OC)nc2N1C(C)C [Volasertib] (300 nM) | – | – | – | – | – | – | normalised viability (DU-4475 [7]): 18.6%; normalised viability (CAL-51 [8]): 9.3%; normalised viability (MDA-MB-453 [9]): 34.3%; normalised viability (CAL-85-1 [10]): 64.6%; normalised viability (CAL-148 [11]): 26.6%; normalised viability (HDQ-P1 [12]): 59.4%
O=C(O)CC[C@H]1CC[C@@](c2cc(F)ccc2F)(S(=O)(=O)c2ccc(Cl)cc2)CC1 [MK-0752] (300 nM) | – | – | – | – | – | – | normalised viability (DU-4475 [7]): 115%; normalised viability (CAL-51 [8]): 119%; normalised viability (MDA-MB-453 [9]): 114%; normalised viability (CAL-85-1 [10]): 94.6%; normalised viability (CAL-148 [11]): 95.3%; normalised viability (HDQ-P1 [12]): 114%
CCN(CC)CCOc1ccc(C(=C(Cl)c2ccccc2)c2ccccc2)cc1 [Clomifene] (3000 nM) | – | – | – | – | – | – | normalised viability (DU-4475 [7]): 92.4%; normalised viability (CAL-51 [8]): 95.4%; normalised viability (MDA-MB-453 [9]): 82.8%; normalised viability (CAL-85-1 [10]): 106%; normalised viability (CAL-148 [11]): 93.3%; normalised viability (HDQ-P1 [12]): 132%
N[C@@H](Cc1ccc(N(CCCl)CCCl)cc1)C(=O)O [Melphalan] (29.7 nM) | 102% | 104% | 110% | 88.3% | 98.7% | 81.1% | –
Cn1nnc2c(C(N)=O)ncn2c1=O [Temozolomide] (3000 nM) | – | – | – | – | – | – | normalised viability (DU-4475 [7]): 100%; normalised viability (CAL-51 [8]): 93.6%; normalised viability (MDA-MB-453 [9]): 104%; normalised viability (CAL-85-1 [10]): 97.3%; normalised viability (CAL-148 [11]): 88.8%; normalised viability (HDQ-P1 [12]): 103%
NC1(c2ccc(-c3nc4ccn5c(=O)[nH]nc5c4cc3-c3ccccc3)cc2)CCC1 [MK-2206] (300 nM) | – | – | – | – | – | – | normalised viability (DU-4475 [7]): 100%; normalised viability (CAL-51 [8]): 98.8%; normalised viability (MDA-MB-453 [9]): 73%; normalised viability (CAL-85-1 [10]): 82.9%; normalised viability (CAL-148 [11]): 91.3%; normalised viability (HDQ-P1 [12]): 77.5%
C[C@@H](CN1CC(=O)NC(=O)C1)N1CC(=O)NC(=O)C1 [Dexrazoxane] (300 nM) | 108% | 95% | 97.6% | 95.4% | 83.5% | 82.2% | –
N[C@@H](Cc1ccc(N(CCCl)CCCl)cc1)C(=O)O [Melphalan] (99 nM) | – | – | – | – | – | – | normalised viability (DU-4475 [13]): 86.2%; normalised viability (CAL-51 [14]): 109%; normalised viability (MDA-MB-453 [15]): 101%; normalised viability (CAL-85-1 [16]): 79.4%; normalised viability (CAL-148 [17]): 106%; normalised viability (HDQ-P1 [18]): 100%
CC(C)C[C@H](NC(=O)[C@H](CCc1ccccc1)NC(=O)CN1CCOCC1)C(=O)N[C@@H](Cc1ccccc1)C(=O)N[C@@H](CC(C)C)C(=O)[C@@]1(C)CO1 [Carfilzomib] (30 nM) | 8.97% | 32.1% | 19.8% | 9.23% | 40.8% | 1.01% | –
NC(=O)c1cccc2cn(-c3ccc([C@@H]4CCCNC4)cc3)nc12 [MK-4827] (300 nM) | 73.6% | 100% | 106% | 96.8% | 101% | 75.7% | –
CO[C@H](C(=O)[C@@H](O)[C@@H](C)O)[C@@H]1Cc2cc3cc(O[C@H]4C[C@@H](O[C@@H]5C[C@@H](O)[C@H](O)[C@@H](C)O5)[C@H](O)[C@@H](C)O4)c(C)c(O)c3c(O)c2C(=O)[C@H]1O[C@H]1C[C@@H](O[C@@H]2C[C@@H](O)[C@@H](O[C@@H]3C[C@](C)(O)[C@H](O)[C@@H](C)O3)[C@@H](C)O2)[C@H](O)[C@@H](C)O1 [Plicamycin] (300 nM) | 0.65% and -0.39% | 18.3% and 13.9% | 17.4% and 13.2% | 13% and 11.5% | 2.94% and 7.64% | 32.7% and 20.9% | –
NC1(c2ccc(-c3nc4ccn5c(=O)[nH]nc5c4cc3-c3ccccc3)cc2)CCC1 [MK-2206] (30 nM) | 103% | 101% | 99.4% | 96.2% | 97.4% | 69.6% | –
Cc1cc2c(F)c(Oc3ncnn4cc(OC[C@@H](C)O)c(C)c34)ccc2[nH]1 [Brivanib] (30 nM) | 109% | 91.9% | 85.4% | 91.7% | 92.6% | 65.1% | –
COc1cc2c(N3CCN(C(=O)Nc4ccc(OC(C)C)cc4)CC3)ncnc2cc1OCCCN1CCCCC1 [Tandutinib] (30 nM) | 96.3% | 106% | 108% | 110% | 103% | 70.4% | –
O=C(O)CC[C@H]1CC[C@@](c2cc(F)ccc2F)(S(=O)(=O)c2ccc(Cl)cc2)CC1 [MK-0752] (30 nM) | 117% | 106% | 103% | 100% | 115% | 93% | –
CCN(CC)CCOc1ccc(C(=C(Cl)c2ccccc2)c2ccccc2)cc1 [Clomifene] (300 nM) | 90.6% | 91.6% | 93.9% | 102% | 99.2% | 105% | –
O=C(c1cc(Cc2n[nH]c(=O)c3ccccc23)ccc1F)N1CCN(C(=O)C2CC2)CC1 [Olaparib] (300 nM) | 83.2% | 93.2% | 98% | 92.2% | 85.3% | 73.9% | –
